# Earlier results as cited in US20130344141A1, “CONCENTRATION AND MENTAL PERFORMANCE AMPLIFYING FORMULATION” (priority 2009, published 2013).
# Where two headings read alike, the source gives them in different places.
# Assays:
# [1] = taken orally
# [2] = majority metabolized peripherally
# [3] = in vivo, po
# [4] = test system: cerebral cortex N-methyl-D-aspartate (NMDA) receptor
# [5] = test system: acetylcholine
# [6] = in vivo
# [7] = test system: neurons; conditions: by blocking glutamate-induced neuronal calcium influx and cell death
# [8] = test system: fungal microorganisms that cause onychomycosis; conditions: Trichophyton rubrum, T. mentagrophytes, Microsporum canis, Epidermophyton floccosum, E. stockdale
# [9] = test system: neuroblastoma cells; conditions: in vitro
# [10] = test system: platelet aggregation
# [11] = in vivo; remark: listed apart in the source
compound,measurement,setting,value
"1,2-diacyl-:ussn:ueglycero-3-phosphocholine [phosphatidylcholine]",time to maximum serum concentrations,[1],8 to 12 h
"N[C@@H](Cc1ccc(O)c(O)c1)C(=O)O [L-dopa, levodopa]",share that reaches the brain,[2],less than 1%
"Cn1c(=O)c2c(ncn2C)n(C)c1=O [caffeine, 1,3,7-trimethylxanthine]",bioavailability,[3],100%
"C/C=C1\[C@H]2C=C(C)C[C@]1(N)c1ccc(=O)[nH]c1C2 [huperzine A, Huperzine A]",affinity as NMDA receptor antagonist,[4],low affinity
same,"acetylcholine elevation, frontal cortex","[5]; maximal value, frontal cortex",125%
same,"acetylcholine elevation, parietal cortex","[5]; maximal value, parietal cortex",105%
same,"acetylcholine elevation, other brain regions",[5]; other brain regions,22-65%
same,blood-brain barrier passage,[6],crosses the blood-brain barrier
same,protection of neurons against toxic levels of glutamate,[7],protects neurons
CC1CCC(C(C)C)C(O)C1 (stereo not shown) [menthol],activity against fungal microorganisms that cause onychomycosis,[8],active
"CN1CCCC1c1cccnc1 (stereo not shown) [nicotine, Nicotine]",elimination half-life,in the body,around two
same,blood-brain barrier passage,in vivo,crosses the blood-brain barrier
OC[C@H]1O[C@@H](OCCc2ccc(O)cc2)[C@H](O)[C@@H](O)[C@@H]1O [salidroside],apoptosis of neuroblastoma cells exposed to hydrogen peroxide,[9],decreases apoptosis
"CCOC(=O)C1=C[C@]2(CC)CCCN3CCc4c(n1c1ccccc41)[C@@H]32 [vinpocetine, Eburnamenine-14-carboxylic acid; Ethyl Ester]",drug-induced platelet aggregation,[10],inhibits
same,bioavailability,[11],7-57%
same,effect of food on absorption,[11],food significantly enhances absorption
